Legend:
Experiment in all cases: relative viability (nuclei count vs DMSO), 5 days (fraction); higher = more cells survive
Serdemetan + Olaparib = compound: c1ccc2c(CCNc3ccc(Nc4ccncc4)cc3)c[nH]c2c1 [Serdemetan] + O=C(c1cc(Cc2n[nH]c(=O)c3ccccc23)ccc1F)N1CCN(C(=O)C2CC2)CC1 [Olaparib] (partner 8 µM)
How it was run: (§1)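 After 5 days of treatment, lung cancer cells in 1536-well plates were fixed and stained in a single step (final 0.05% Triton X-100, 1% formaldehyde, 1 ug/ml Hoechst) and their nuclei counted on 4× images. Treatment had been applied by pin tool the day after seeding as one drug alone or as a fixed anchor-drug dose with five library-drug doses (not always all listed) in √10 steps. Relative viability is the nuclei count of treated wells divided by that of vehicle wells, and values are medians of duplicate plates.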

Selisistat + Lapatinib = compound: C1CC(C2=C(C1)C3=C(N2)C=CC(=C3)Cl)C(=O)N [Selisistat] + CS(=O)(=O)CCNCc1ccc(-c2ccc3ncnc(Nc4ccc(OCc5cccc(F)c5)c(Cl)c4)c3c2)o1 [Lapatinib] (partner 2 µM)
How it was run: as §1

Serdemetan + Tozasertib = compound: c1ccc2c(CCNc3ccc(Nc4ccncc4)cc3)c[nH]c2c1 [Serdemetan] + Cc1cc(Nc2cc(N3CCN(C)CC3)nc(Sc3ccc(NC(=O)C4CC4)cc3)n2)n[nH]1 [Tozasertib] (partner 0.1 µM)
How it was run: as §1

Serdemetan + Alpelisib = compound: c1ccc2c(CCNc3ccc(Nc4ccncc4)cc3)c[nH]c2c1 [Serdemetan] + Cc1nc(NC(=O)N2CCC[C@H]2C(N)=O)sc1-c1ccnc(C(C)(C)C(F)(F)F)c1 [Alpelisib] (partner 2 µM)
How it was run: as §1

Cell Line | relative viability (Serdemetan + Olaparib; first compound 0.04 µM) | relative viability (Serdemetan + Olaparib; first compound 0.1265 µM) | relative viability (Serdemetan + Olaparib; first compound 0.4 µM) | relative viability (Serdemetan + Olaparib; first compound 1.265 µM) | relative viability (Serdemetan + Olaparib; first compound 4 µM) | relative viability (Selisistat + Lapatinib; first compound 0.4 µM) | relative viability (Selisistat + Lapatinib; first compound 1.265 µM) | relative viability (Selisistat + Lapatinib; first compound 4 µM) | relative viability (Selisistat + Lapatinib; first compound 12.65 µM) | relative viability (Selisistat + Lapatinib; first compound 40 µM) | relative viability (Serdemetan + Tozasertib; first compound 0.04 µM) | relative viability (Serdemetan + Tozasertib; first compound 0.1265 µM) | relative viability (Serdemetan + Tozasertib; first compound 0.4 µM) | relative viability (Serdemetan + Tozasertib; first compound 1.265 µM) | relative viability (Serdemetan + Tozasertib; first compound 4 µM) | relative viability (Serdemetan + Alpelisib; first compound 0.04 µM) | relative viability (Serdemetan + Alpelisib; first compound 0.1265 µM) | relative viability (Serdemetan + Alpelisib; first compound 0.4 µM) | relative viability (Serdemetan + Alpelisib; first compound 1.265 µM) | relative viability (Serdemetan + Alpelisib; first compound 4 µM)
NCI-H1915 | 0.238 | 0.242 | 0.223 | 0.208 | 0.24 | 0.967 | 0.969 | 0.918 | 0.897 | 1.02 | 0.406 | 0.416 | 0.38 | 0.317 | 0.396 | 1.04 | 1.06 | 1.01 | 0.503 | 0.802
NCI-H1944 | 0.385 | 0.393 | 0.286 | 0.228 | 0.288 | 0.797 | 0.767 |  | 0.746 | 0.854 | 0.249 | 0.278 | 0.234 | 0.158 | 0.165 | 0.806 | 0.753 | 0.715 |  | 0.453
NCI-H1975 | 0.843 | 0.754 | 0.742 | 0.748 | 0.75 | 0.823 | 0.831 | 0.706 | 0.759 | 0.65 | 0.825 | 0.701 | 0.722 |  | 0.771 | 0.68 | 0.675 | 0.666 | 0.637 | 0.803
NCI-H1993 | 0.982 | 0.969 | 1.18 | 1.01 | 0.778 | 0.683 | 0.751 |  | 0.913 | 0.806 | 0.578 | 0.579 | 0.592 | 0.568 | 0.562 | 0.715 | 0.802 | 0.621 |  | 0.67
NCI-H2009 | 0.777 | 0.687 | 0.688 | 0.496 | 0.497 | 0.903 | 0.961 | 0.454 | 0.826 | 0.987 | 0.7 | 0.712 | 0.705 | 0.675 | 0.625 | 1.18 | 1.11 | 1.08 | 1.12 | 0.964
NCI-H2023 | 0.512 | 0.459 | 0.323 | 0.152 | 0.203 | 0.703 | 0.812 | 0.537 | 0.859 | 0.758 | 0.377 | 0.359 | 0.309 | 0.298 | 0.153 | 0.613 | 0.651 | 0.521 | 0.375 | 0.266
NCI-H2085 | 0.818 | 0.676 | 0.597 | 0.44 | 0.393 | 0.818 | 0.797 | 0.725 | 0.753 | 0.724 | 0.813 | 0.797 | 0.77 | 0.708 | 0.574 | 0.952 | 0.911 | 0.801 | 0.573 | 0.585
NCI-H2087 | 0.481 | 0.473 | 0.433 | 0.207 | 0.217 | 1 | 1.13 | 0.653 | 0.946 | 1.03 | 0.282 | 0.237 | 0.308 | 0.202 | 0.2 | 1.1 | 0.986 | 1.09 | 0.669 | 0.532
NCI-H2126 | 0.885 | 0.914 | 0.855 | 0.724 | 0.751 | 0.828 | 0.775 | 0.623 | 0.794 | 0.856 | 0.867 | 0.874 | 0.786 | 0.832 | 0.79 | 0.721 | 0.753 | 0.741 | 0.575 | 0.762
NCI-H2170 | 0.641 | 0.571 | 0.544 | 0.469 | 0.352 | 0.265 | 0.272 | 0.268 | 0.28 | 0.253 | 0.662 | 0.732 | 0.7 | 0.276 | 0.685 | 0.776 | 0.854 | 0.833 | 0.721 | 0.811
NCI-H2228 | 0.493 | 0.458 | 0.358 | 0.301 | 0.264 | 0.99 | 1.2 | 1.31 | 0.868 | 1.07 | 0.267 | 0.246 | 0.371 | 0.128 | 0.162 | 0.762 | 0.554 | 0.46 | 0.307 | 0.294
NCI-H2347 | 0.568 | 0.535 | 0.59 | 0.424 | 0.439 | 1.06 | 0.943 | 0.482 | 0.882 | 0.983 | 0.623 | 0.602 | 0.572 | 0.588 | 0.399 | 0.936 | 1.02 | 1.01 | 0.866 | 0.703
NCI-H2405 | 0.809 | 0.829 | 0.86 | 0.795 | 0.779 | 1.01 |  |  | 1.03 | 1.09 | 0.7 | 0.704 | 0.734 | 0.659 | 0.662 | 0.881 | 0.918 | 0.826 | 0.772 | 0.543
NCI-H3122 | 0.597 | 0.614 | 0.557 | 0.407 | 0.367 | 1.01 | 1.01 | 0.772 | 1.05 | 1.1 | 0.369 | 0.431 | 0.382 | 0.406 | 0.337 | 0.809 | 0.715 | 0.779 |  | 0.771
PC-3 [JPC-3] | 1.11 | 1.08 | 0.969 | 1.09 | 1.18 | 0.439 | 0.457 | 0.398 | 0.487 | 0.417 | 0.841 | 0.795 | 0.784 | 0.929 | 0.87 | 1.04 | 0.979 |  | 1.01 | 1.05
PC-14 | 0.307 | 0.261 |  | 0.204 | 0.167 | 0.371 | 0.356 | 0.218 | 0.294 | 0.342 | 0.522 | 0.595 |  | 0.548 | 0.428 | 0.954 | 0.93 | 0.784 | 0.852 | 0.825
RERF-LC-KJ | 1.03 | 0.872 | 0.889 | 0.747 | 0.835 | 0.857 | 0.854 | 0.793 | 0.811 | 0.831 | 0.49 | 0.441 | 0.479 | 0.455 | 0.469 | 0.804 | 0.832 | 0.777 | 0.801 | 0.643
SK-LU-1 | 0.463 | 0.369 | 0.479 | 0.308 | 0.365 | 0.924 | 0.825 | 0.936 | 0.958 | 0.867 | 0.378 | 0.298 | 0.337 |  | 0.294 | 1.14 | 1.07 | 0.944 | 0.758 | 0.669
SK-MES-1 | 0.688 | 0.687 | 0.635 | 0.522 | 0.43 | 0.479 | 0.525 | 0.411 | 0.504 | 0.426 | 0.871 | 0.859 | 0.851 | 0.747 | 0.865 | 0.836 | 0.792 | 0.74 | 0.834 | 0.526
SW 1573 | 0.571 | 0.464 | 0.445 | 0.21 | 0.296 | 1.14 | 1.02 | 1.02 | 1.04 | 1.12 | 0.168 | 0.15 | 0.218 | 0.248 | 0.18 | 0.7 | 0.791 | 0.722 | 0.463 | 0.385

Reference: the supplement of paper PMC10307832
